Data: patent US9375497B2, “[F-18]-labeled L-glutamic acid, [F-18]-labeled L-glutamine, derivatives thereof and use thereof and processes for their preparation” (BAYER SCHERING PHARMA AKTIENGESELLSCHAFT, priority 2006, dated 2016)

Columns and labels:
[1] = system: HT29 (colonic carcinoma) cells; assay: Tumor cell uptake in HT29 cells; assay type: cell-based, human; settings: compared to [^18F]FDG
Method: (§1) For the evaluation of the tumor cell uptake of [^18F]glutamic acid, cell uptake experiments were carried out in human A549 (non-small-cell bronchial carcinoma) and HT29 (colonic carcinoma) cells. The tumor cell uptake of the glutamic acid derivatives was compared to
(§2) [^18F]FDG (gold standard for oncological PET investigations).

[2] = system: A549 (non-small-cell bronchial carcinoma) cells; assay: Tumor cell uptake in A549 cells; assay type: cell-based, human; settings: 250 kBq/well, compared to [^18F]FDG
Method: as §1, §2
FIG. 2: Comparison of the time-dependent tumor cell uptake of [^18F]-4-glutamic acid [20-35 μM] (on the left) and [F-18]FDG [2 μM] (on the right) in A549 cells. The cells were incubated with 250 kBq/well. For displacement experiments, L-glutamic acid (1 mM) or glucose (5 mM) was used (mean value±standard deviation, n=3).

[3] = system: murine B16F1 melanoma model in C57BI6 mice; assay: Tumor enrichment and tissue distribution, B16F1 melanoma model; settings: for Tumor/tissue quotient, Ovary: single i.v.; for Tissue uptake, Brain: single i.v. 111 kBq
Method: (§3) For the evaluation of the tumor enrichment and the tissue distribution in experimental animals, [^18F]-4-glutamic acid was tested in a murine F9 teratocarcinoma model in NMRI nude mice and a murine B16F1 melanoma model in C57BI6 mice.
(§4) For this, 1×10^6 cells (F9) or 5×10^5 cells (B16F1) respectively were suspended in 100 μl of phosphate-buffered physiological saline solution and inoculated subcutaneously into the right, rear flank of the corresponding experimental animal species (NMRI for F9 and 057-BI6 for B16F1) (Berndorff et al. Clin. Cancer Res. 2005, 11, 2005). […] [^18F]-4-Glutamic acid (370 kBq, in 100 μl of physiological saline solution) was administered intravenously to the tail vein. After 15; 60 and 120 min in each case, the animals were killed, organ and tumor removed, weighed and measured for radioactive content.

[4] = system: murine F9 teratocarcinoma model in NMRI nude mice; assay: Tumor enrichment and tissue distribution, F9 teratocarcinoma model; settings: for Tumor/tissue quotient, Liver: single i.v.
Method: as §3
as §4, with “After 15; 60 and 120 min in each case, the animals were killed, organ and tumor removed, weighed and measured for radioactive content.” left out

NC(CC(OCC[18F])C(=O)O)C(=O)O (centres unmarked) [2-amino-4-(2-[F-18]fluoroethoxy)pentanedicarboxylic acid] was tested, and the tumor cell uptake [1] was “Analogous uptake results” and the tumor cell uptake [2] was “Analogous uptake results”.
For NC(CC(CCC[18F])C(=O)O)C(=O)O (centres unmarked) [2-amino-4-(3-[F-18]fluoropropyl)pentanedicarboxylic acid], the tumor cell uptake [1] was “Analogous uptake results” and the tumor cell uptake [2] was “Analogous uptake results”.
For N[C@@H](CC[14C](=O)O)C(=O)O [[^14C]5-glutamic acid, reference compound], the “Tumor/tissue quotient, Ovary” value ([3]; 0.25 h (times as Table 7)) was 0.47, the “Tissue uptake, Brain” value ([3]; 0.25 h) was 0.22 % dose/g and the “Tumor/tissue quotient, Ovary” value ([3]; 1.0 h (times as Table 7)) was 1.01. The “Tissue uptake, Brain” value ([3]; 1.0 h) was 0.13 % dose/g, the “Tissue uptake, Brain” value ([3]; 2.0 h) was 0.09 % dose/g and the tumor enrichment ([3]; B16F1 melanoma, 1 h after intravenous administration) was 1.03 % ID/g. The maximal tumor enrichment ([3]; B16F1 melanoma, "at the same time") was 1.23, the “Tumor/tissue quotient, Liver” value ([4]; 1.0 h (times as Table 5)) was 1.31 and the “Tumor/tissue quotient, Liver” value ([4]; 4.0 h (times as Table 5)) was 1.09. The tumor enrichment ([4]; F9 teratocarcinoma, 1 h after intravenous administration) was 0.98 % ID/g and the maximal tumor enrichment ([4]; F9 teratocarcinoma, similarly early time (30 min)) was 0.81 % ID/g.
In the case of NC(=O)C([18F])CC(N)C(=O)O (centres unmarked) [[^18F]-4-glutamine, 2-amino-4-[F-18]fluoroglutamine], the tumor cell uptake [1] is reported as “Analogous uptake results” and the tumor cell uptake [2] is reported as “Analogous uptake results”.
